Results as given in BindingDB's records for patent US20250268854 (C/O Vesper Bio, 2025).

Assays:
Sortilin [1] = target: T1, Sortilin (Homo sapiens, UniProt Q99523); assay: Neurotensin Scintillation Proximity Assay
T1 sequence (Q99523 whole entry): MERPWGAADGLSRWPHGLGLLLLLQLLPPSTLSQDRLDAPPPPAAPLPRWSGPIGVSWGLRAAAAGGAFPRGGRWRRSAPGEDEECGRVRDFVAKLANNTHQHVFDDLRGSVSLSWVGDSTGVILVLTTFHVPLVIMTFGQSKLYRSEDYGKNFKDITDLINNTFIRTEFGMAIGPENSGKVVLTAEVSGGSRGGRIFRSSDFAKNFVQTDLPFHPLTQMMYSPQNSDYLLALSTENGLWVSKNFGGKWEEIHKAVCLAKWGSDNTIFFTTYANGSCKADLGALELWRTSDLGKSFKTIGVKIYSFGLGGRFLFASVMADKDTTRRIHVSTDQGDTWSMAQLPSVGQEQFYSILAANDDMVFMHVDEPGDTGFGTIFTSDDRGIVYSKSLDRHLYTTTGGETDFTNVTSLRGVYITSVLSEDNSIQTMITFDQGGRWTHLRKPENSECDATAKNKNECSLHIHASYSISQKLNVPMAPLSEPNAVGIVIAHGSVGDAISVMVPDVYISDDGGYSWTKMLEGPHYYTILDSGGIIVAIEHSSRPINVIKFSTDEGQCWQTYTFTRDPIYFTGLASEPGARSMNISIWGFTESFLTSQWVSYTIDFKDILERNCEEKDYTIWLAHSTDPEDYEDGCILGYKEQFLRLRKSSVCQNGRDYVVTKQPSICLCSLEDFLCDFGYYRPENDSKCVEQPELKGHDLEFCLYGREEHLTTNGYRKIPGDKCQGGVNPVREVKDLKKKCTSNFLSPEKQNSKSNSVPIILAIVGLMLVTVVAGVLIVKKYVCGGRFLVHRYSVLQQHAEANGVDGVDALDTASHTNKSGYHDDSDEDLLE
Method: Compound affinity was determined by measuring the displacement of [3H]-neurotensin binding to h-Sortilin in SPA format. Total volume of 40 μl in 50 mM HEPES pH 7.4 assay buffer containing 100 mM NaCl, 2.0 mM CaCl2, 0.1% BSA and 0.1% Tween-20. […] Dose-response evaluation of compounds was performed with 8 concentrations of drugs (covering 3 decades). IC50 values were calculated by nonlinear regression using the sigmoid concentration-response (variable slope) using CDD Vault software. All values reported are average of at least 2 determinations.

Sortilin [2] = target: T1, Sortilin; assay: Rapid Kinetics Assay
Method: Compounds were screened at a final assay concentration of 1 μM and a final DMSO concentration was 1%. To achieve this, compounds were diluted in DMSO from 10 mM stocks to 100 μM (100×final assay concentration) then diluted 1:100 in running buffer which contained no DMSO to establish a final assay concentration of compound of 1 μM and a final DMSO concentration of 1% [DMSO].Compounds and DMSO were mixed by plate shaking at 1000 rpm for 60 seconds using a Bioshake instrument.

| Structure (SMILES) | IC50 (Sortilin [1]) | Kd (Sortilin [2]) |
| --- | --- | --- |
| CC(C)(C)CC[C@H](NC1=NC2C=CC=CC2OC2C=CC=CC12)C(=O)O (some centres undefined) [US20250268854, Example 20] | 1490 nM | – |
| CC(C)(C)CC[C@H](NCC1=CC(Cl)CC(Cl)=C1)C(=O)O (some centres undefined) [US20250268854, Example 32] | 840 nM | – |
| COc1cccc(CN[C@@H](CCC(C)(C)C)C(=O)O)c1F [US20250268854, Example 34] | 720 nM | 492 nM |
| CC(C)(C)CC[C@H](NCc1cc2ccccc2[nH]1)C(=O)O [US20250268854, Example 50] | 610 nM | – |
| C[C@@H](N[C@@H](CCC(C)(C)C)C(=O)O)c1cccc2c1ccn2C [US20250268854, Example 63] | 200 nM | 56.7 nM |
| C[C@H](N[C@@H](CCC(C)(C)C)C(=O)O)c1cccc2c1ccn2C [US20250268854, Example 64] | 460 nM | 102 nM |
| CC(C)(C)CC[C@H](NCc1ccncn1)C(=O)O [US20250268854, Example 136] | 1600 nM | 26400 nM |
| CC(C)(C)CC[C@H](NCc1cccc(C#N)c1)C(=O)O [US20250268854, Example 142] | 1260 nM | – |
| COC1C=C(CN[C@@H](CCC(C)(C)C)C(=O)O)C=NC1 (some centres undefined) [US20250268854, Example 144] | 430 nM | 310 nM |
